Experimental data as given in patent US20050112562A1, “Inhibition of retroviral replication through modulation of the host cell ubiquitylation” (Rigel Pharmaceuticals, Inc., priority 2003, published 2005).
Where a SMILES comes first, the peptide text is derived from it. [ ]: non-standard residue; d: D form. The star is where a group is joined. Nle = CCCC[C@H](N)C(=O)O; Cbz = O=C(OCc1ccccc1)*

Columns and labels:
Type in all cases: cell-based
[1] = system: vif-mediated degradation of the luciferase/apobec3G fusion protein; assay: transient luciferase/apobec3G fusion reporter with co-introduced vif construct (chemiluminescence, western blot); settings: Phoenix and HeLa cells; band in final lane of each western blot
From the text: A construct encoding a luciferase/apobec3G fusion protein was introduced into Phoenix and HeLa cells and transient expression of the luciferase/apobec3G fusion protein was monitored by detecting chemiluminescence. Results were normalized to the number of cells assayed. […] The gels shown at the top of both FIGS. 3A and 3B show results obtained from western blots of cell extracts using antibodies. Tesults obtained using anti-apobec3G and anti-lactate dehydrogenase antibodies are indicated as “3G” and “LDH”, respectively.
This phenomenon is inhibited by adding MG132, a known inhibitor of proteosome-mediated protein degradation (see the band observed in the final lane of each of the western blots). Cells containing both vif and a luciferase/apobec3G reporter can therefore be used to test agents for vif-inhibitory activity.

[2] = system: vif-mediated degradation of the luciferase/apobec3G fusion protein in HeLa cells; assay: co-transfection of luciferase/apobec3G and vif constructs at varied ratios, luciferase activity (FIG. 4); settings: for luciferase activity: 10 μM or 20 μM inhibitor, luciferase/apobec3G:vif 50:1 (tested 2:1, 25:1, 50:1, 100:1)
Method: Cells were co-transfected with the luciferase/apobec3G and vif constructs at relative concentrations of 2:1, 25:1, 50:1 and 100:1 (luciferase/apobec3G:vif) in the presence or absence of 10 μM or 20 μM MG132 or ALLN, known inhibitors of proteosome-mediated protein degradation.

vif activity = assay: vif expressed from different vectors with luciferase/apobec3G in a cell (FIGS. 5A-5E); settings: vif from pCMV, pcDNA6, pcDNA6 CTE, pEF6, pEF6 CTE constructs

SMILES	vif-caused decrease in luciferase activity / degradation of the luciferase/apobec3G fusion protein [1]	luciferase activity [2]	activity of an apobec3G-luciferase fusion ([2]; in the presence of apobec3G/vif in HeLa cells (FIG. 4 legend))	modulation of vif activity (vif activity)
CC(C)C[C@@H](C=O)NC(=O)[C@H](CC(C)C)NC(=O)[C@H](CC(C)C)NC(=O)OCc1ccccc1 [MG132] (Cbz-Leu-Leu-Leu-aldehyde)	inhibited	maximally increased luciferase activity	increased activity	could be modulated
CCCC[C@@H](C=O)NC(=O)[C@H](CC(C)C)NC(=O)[C@H](CC(C)C)NC(C)=O [ALLN] (Ac-Leu-Leu-[Nle]-aldehyde)	–	maximally increased luciferase activity	–	–
